The target in assay [1] is T1, PBP1a from Acinetobacter baumannii (ATCC 19606) (Acinetobacter baumannii, UniProt A0ABX6CK30).
T1 sequence (A0ABX6CK30 1-851): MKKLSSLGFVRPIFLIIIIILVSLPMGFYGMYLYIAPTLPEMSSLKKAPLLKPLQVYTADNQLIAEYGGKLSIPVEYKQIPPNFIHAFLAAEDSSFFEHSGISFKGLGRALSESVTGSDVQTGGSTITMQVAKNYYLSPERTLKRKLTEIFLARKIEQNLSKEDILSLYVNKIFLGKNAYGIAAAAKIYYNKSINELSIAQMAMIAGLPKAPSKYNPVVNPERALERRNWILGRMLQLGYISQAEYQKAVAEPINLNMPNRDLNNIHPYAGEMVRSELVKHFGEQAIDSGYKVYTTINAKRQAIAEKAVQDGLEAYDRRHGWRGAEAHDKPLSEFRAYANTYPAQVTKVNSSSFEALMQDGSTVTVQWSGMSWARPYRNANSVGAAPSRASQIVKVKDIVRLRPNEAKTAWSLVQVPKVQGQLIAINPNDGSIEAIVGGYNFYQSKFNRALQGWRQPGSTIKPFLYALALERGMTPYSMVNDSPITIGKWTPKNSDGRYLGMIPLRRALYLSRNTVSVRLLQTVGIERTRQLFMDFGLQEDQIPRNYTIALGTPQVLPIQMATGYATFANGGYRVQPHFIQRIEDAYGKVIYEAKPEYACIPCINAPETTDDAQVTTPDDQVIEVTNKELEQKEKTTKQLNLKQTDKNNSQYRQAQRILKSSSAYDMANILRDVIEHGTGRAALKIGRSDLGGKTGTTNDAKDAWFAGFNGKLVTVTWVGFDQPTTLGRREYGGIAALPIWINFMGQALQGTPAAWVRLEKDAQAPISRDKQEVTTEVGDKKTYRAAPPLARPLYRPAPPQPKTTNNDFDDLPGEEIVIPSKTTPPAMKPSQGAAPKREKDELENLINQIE
The experiment in a line: Bocillin-FL fluorescence polarization competition binding, A. baumannii PBP1a. The settings on record: fluorescence polarization competition binding assay using Bocillin-FL; read-out: A. baumannii PBP1a Potency. Put shortly: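 Purified PBPs pre-incubated with inhibitor (E. coli PBP3 1.5 μM, 30 min; P. aeruginosa PBP3 0.75 μM, A. baumannii PBP1a 1 μM and PBP3 0.2 μM, 15 min), then Bocillin-FL 0.1 μM (0.05 μM for PBP1a) added; FP read up to 60 min. EC50 = concentration halving bound Bocillin-FL.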

In assay [2] the test system is A. baumannii ATCC 17978. The assay is described as follows: microbe, parasite or virus in culture. It is filed as cell-based. The note with it: Acinetobacter baumannii, ATCC17978, read-out: MIC, A. baumannii ATCC 17978.
Assay [3] concerns A. baumannii CDC-0045. The assay is described as follows: microbe, parasite or virus in culture. Type of assay: cell-based. The settings on record: Acinetobacter baumannii, CDC0045, read-out: MIC, A. baumannii CDC-0045.
Assay [4] concerns N. gonorrhoeae ATCC 49226. The experiment in a line: Liquid broth MIC in Fastidious broth. The note with it: Neisseria gonorrhoeae, ATCC49226, read-out: Minimum Inhibitory Concentration (MIC), N. gonorrhoeae ATCC 49226.
Assay [5] has as its system P. aeruginosa CDC-0054. The assay is described as follows: microbe, parasite or virus in culture. It is filed as cell-based. The note with it: Pseudomonas aeruginosa, CDC0054, read-out: Minimum inhibitory concentration, P. aeruginosa CDC-0054.

Molecules are shown by their SMILES. ≈ marks a conversion by molar mass, not a printed value. Some results are limits rather than exact numbers.

Regarding `O=C(NCCN1CCN(C(=O)NC(C(=O)N[C@H]2Cc3ccc(F)c(C(=O)O)c3OB2O)c2cc(F)c(O)c(O)c2Cl)C(=O)C1=O)c1ccccc1` (stereo partly drawn) [Example 207, (3R)-3-(2-(4-(2-benzamidoethyl)-2,3-dioxopiperazine-1-carboxamido)-2-(2-chloro-5-fluoro-3,4-dihydroxyphenyl)acetamido)-7-fluoro-2-hydroxy-3,4-dihydro-2H-benzo[e][1,2]oxaborinine-8-carboxylic acid], the IC50 in assay [1] is above 250 µM. Also, the MIC is below 1 µg/mL in assay [2], 2 to 4 µg/mL (≈ 2.74 to 5.48 µM) in assay [3], 16 to 32 µg/mL (≈ 21.9 to 43.8 µM) in assay [4] and 2 to 4 µg/mL (≈ 2.74 to 5.48 µM) in assay [5].
As for `CN(CCN1CCN(C(=O)N[C@@H](C(=O)N[C@H]2Cc3ccc(F)c(C(=O)O)c3OB2O)c2cc(F)c(O)c(O)c2Cl)C(=O)C1=O)Cc1ccc(N)nc1` [Example 209, (R)-3-((R)-2-(4-(2-(((6-aminopyridin-3-yl)methyl)(methyl)amino)ethyl)-2,3-dioxopiperazine-1-carboxamido)-2-(2-chloro-5-fluoro-3,4-dihydroxyphenyl)acetamido)-7-fluoro-2-hydroxy-3,4-dihydro-2H-benzo[e][1,2]oxaborinine-8-carboxylic acid], the IC50 in assay [1] is above 250 µM. Moreover, the MIC in assay [2] was below 1 µg/mL; in assay [3] it was below 1 µg/mL; in assay [4] it was 4 to 8 µg/mL (≈ 5.36 to 10.7 µM); in assay [5], 2 to 4 µg/mL (≈ 2.68 to 5.36 µM).
With `O=C(NCCCN1CCN(C(=O)N[C@@H](C(=O)N[C@H]2Cc3ccc(F)c(C(=O)O)c3OB2O)c2cc(F)c(O)c(O)c2Cl)C(=O)C1=O)c1cccnc1` [Example 210, (R)-3-((R)-2-(2-chloro-5-fluoro-3,4-dihydroxyphenyl)-2-(4-(3-(nicotinamido)propyl)-2,3-dioxopiperazine-1-carboxamido)acetamido)-7-fluoro-2-hydroxy-3,4-dihydro-2H-benzo[e][1,2]oxaborinine-8-carboxylic acid], in assay [1], the IC50 is above 250 µM. For the same compound, the MIC in assay [2] is below 1 µg/mL; in assay [3], below 1 µg/mL; in assay [4], 16 to 32 µg/mL (≈ 21.5 to 43 µM); in assay [5] it was below 1 µg/mL.
Turning to `O=C(NCCCN1CCN(C(=O)NC(C(=O)N[C@H]2Cc3ccc(F)c(C(=O)O)c3OB2O)c2cc(F)c(O)c(O)c2Cl)C(=O)C1=O)c1nccs1` (stereo partly drawn) [Example 211, (3R)-3-(2-(2-chloro-5-fluoro-3,4-dihydroxyphenyl)-2-(2,3-dioxo-4-(3-(thiazole-2-carboxamido)propyl)piperazine-1-carboxamido)acetamido)-7-fluoro-2-hydroxy-3,4-dihydro-2H-benzo[e][1,2]oxaborinine-8-carboxylic acid], in assay [1], the IC50 is above 250 µM. Also, the MIC is below 1 µg/mL in assay [2], below 1 µg/mL in assay [3], 16 to 32 µg/mL (≈ 21.3 to 42.6 µM) in assay [4] and 2 to 4 µg/mL (≈ 2.66 to 5.33 µM) in assay [5].
As to `O=C(O)c1c(F)ccc2c1OB(O)[C@@H](NC(=O)C(NC(=O)N1CCN(CCCNC(=O)[C@@H]3CCCN3)C(=O)C1=O)c1cc(F)c(O)c(O)c1Cl)C2` (stereo partly drawn) [Example 212, (3R)-3-(2-(2-chloro-5-fluoro-3,4-dihydroxyphenyl)-2-(2,3-dioxo-4-(3-((S)-pyrrolidine-2-carboxamido)propyl)piperazine-1-carboxamido)acetamido)-7-fluoro-2-hydroxy-3,4-dihydro-2H-benzo[e][1,2]oxaborinine-8-carboxylic acid], in assay [1], the IC50 is above 250 µM. Besides, the MIC is below 1 µg/mL in assay [2], 2 to 4 µg/mL (≈ 2.71 to 5.43 µM) in assay [3], 16 to 32 µg/mL (≈ 21.7 to 43.4 µM) in assay [4] and 8 to 16 µg/mL (≈ 10.9 to 21.7 µM) in assay [5].
The matching figures for `O=C(NCCCN1CCN(C(=O)NC(C(=O)N[C@H]2Cc3ccc(F)c(C(=O)O)c3OB2O)c2cc(F)c(O)c(O)c2Cl)C(=O)C1=O)Nc1cccnc1` (stereo partly drawn) [Example 213, (3R)-3-(2-(2-chloro-5-fluoro-3,4-dihydroxyphenyl)-2-(2,3-dioxo-4-(3-(3-(pyridin-3-yl)ureido)propyl)piperazine-1-carboxamido)acetamido)-7-fluoro-2-hydroxy-3,4-dihydro-2H-benzo[e][1,2]oxaborinine-8-carboxylic acid]: above 250 µM, below 1 µg/mL, 2 to 4 µg/mL (≈ 2.63 to 5.26 µM), 16 to 32 µg/mL (≈ 21.1 to 42.1 µM) and 2 to 4 µg/mL (≈ 2.63 to 5.26 µM).
For `O=C(NCCN1CCN(C(=O)NC(C(=O)N[C@H]2Cc3ccc(F)c(C(=O)O)c3OB2O)c2cc(F)c(O)c(O)c2Cl)C(=O)C1=O)c1ccc(O)cc1` (stereo partly drawn) [Example 214, (3R)-3-(2-(2-chloro-5-fluoro-3,4-dihydroxyphenyl)-2-(4-(2-(4-hydroxybenzamido)ethyl)-2,3-dioxopiperazine-1-carboxamido)acetamido)-7-fluoro-2-hydroxy-3,4-dihydro-2H-benzo[e][1,2]oxaborinine-8-carboxylic acid], in assay [1], the IC50 was above 250 µM. Also, the MIC is below 1 µg/mL in assay [2], 2 to 4 µg/mL (≈ 2.68 to 5.36 µM) in assay [3], 4 to 8 µg/mL (≈ 5.36 to 10.7 µM) in assay [4] and 2 to 4 µg/mL (≈ 2.68 to 5.36 µM) in assay [5].
With `O=C(NCCN1CCN(C(=O)NC(C(=O)N[C@H]2Cc3ccc(F)c(C(=O)O)c3OB2O)c2cc(F)c(O)c(O)c2Cl)C(=O)C1=O)c1cccc(O)c1` (stereo partly drawn) [Example 215, (3R)-3-(2-(2-chloro-5-fluoro-3,4-dihydroxyphenyl)-2-(4-(2-(3-hydroxybenzamido)ethyl)-2,3-dioxopiperazine-1-carboxamido)acetamido)-7-fluoro-2-hydroxy-3,4-dihydro-2H-benzo[e][1,2]oxaborinine-8-carboxylic acid], the IC50 in assay [1] was above 250 µM. For the same compound, the MIC was below 1 µg/mL in assay [2], 8 to 16 µg/mL (≈ 10.7 to 21.5 µM) in assay [3], 16 to 32 µg/mL (≈ 21.5 to 42.9 µM) in assay [4] and 8 to 16 µg/mL (≈ 10.7 to 21.5 µM) in assay [5].
With `O=C(NCCN1CCN(C(=O)NC(C(=O)N[C@H]2Cc3ccc(F)c(C(=O)O)c3OB2O)c2cc(F)c(O)c(O)c2Cl)C(=O)C1=O)c1ccncc1` (stereo partly drawn) [Example 216, (3R)-3-(2-(2-chloro-5-fluoro-3,4-dihydroxyphenyl)-2-(4-(2-(isonicotinamido)ethyl)-2,3-dioxopiperazine-1-carboxamido)acetamido)-7-fluoro-2-hydroxy-3,4-dihydro-2H-benzo[e][1,2]oxaborinine-8-carboxylic acid], the IC50 in assay [1] is above 250 µM. The MIC in assay [2] was below 1 µg/mL; in assay [3] it was 2 to 4 µg/mL (≈ 2.74 to 5.47 µM); in assay [4], 16 to 32 µg/mL (≈ 21.9 to 43.8 µM); in assay [5] it was 8 to 16 µg/mL (≈ 10.9 to 21.9 µM).
The matching figures for `O=C(NCCN1CCN(C(=O)NC(C(=O)N[C@H]2Cc3ccc(F)c(C(=O)O)c3OB2O)c2cc(F)c(O)c(O)c2Cl)C(=O)C1=O)c1cccnc1` (stereo partly drawn) [Example 217, (3R)-3-(2-(2-chloro-5-fluoro-3,4-dihydroxyphenyl)-2-(4-(2-(nicotinamido)ethyl)-2,3-dioxopiperazine-1-carboxamido)acetamido)-7-fluoro-2-hydroxy-3,4-dihydro-2H-benzo[e][1,2]oxaborinine-8-carboxylic acid]: above 250 µM, below 1 µg/mL, below 1 µg/mL, 16 to 32 µg/mL (≈ 21.9 to 43.8 µM) and below 1 µg/mL.
The matching figures for `O=C(NCCN1CCN(C(=O)NC(C(=O)N[C@H]2Cc3ccc(F)c(C(=O)O)c3OB2O)c2cc(F)c(O)c(O)c2Cl)C(=O)C1=O)c1nccs1` (stereo partly drawn) [Example 218, (3R)-3-(2-(2-chloro-5-fluoro-3,4-dihydroxyphenyl)-2-(2,3-dioxo-4-(2-(thiazole-2-carboxamido)ethyl)piperazine-1-carboxamido)acetamido)-7-fluoro-2-hydroxy-3,4-dihydro-2H-benzo[e][1,2]oxaborinine-8-carboxylic acid]: above 250 µM, below 1 µg/mL, 8 to 16 µg/mL (≈ 10.9 to 21.7 µM), 16 to 32 µg/mL (≈ 21.7 to 43.4 µM) and 8 to 16 µg/mL (≈ 10.9 to 21.7 µM).

For the origin of these results see patent publication US20240270762A1, “PENICILLIN-BINDING PROTEIN INHIBITORS” (priority 2021, published 2024).
